Laboratory results from ChEMBL document CHEMBL5329202, “New aryl-/heteroarylpiperazine derivatives of 1,7-dimethyl-8,9-diphenyl-4-azatricyclo[5.2.1.02,6]dec-8-ene-3,5,10-trione: Synthesis and preliminary studies of biological activities” (Bioorg Med Chem, 2023).
Activity calls are given as the source filed them. No cut-off for these calls is given here.

How the values were obtained:
SW480 [1] = experiment: Induction of apoptosis in human SW480 cells assessed as viable cells at IC50 incubated for 72 hrs by Annexin V-FITC/PI staining based flow cytometric analysis (reference value: 97.7 %); assay type: functional
Rattus norvegicus = species: Rattus norvegicus; experiment: Displacement of [3H]-QNB from Sprague-Dawley rat Muscarinic acetylcholine receptor assessed as inhibition constant measured after 45 mins by competitive binding assay
K562 [2] = experiment: Antiproliferative activity against human K562 cells assessed as reduction in cell viability at IC50 measured after 72 hrs by trypan blue dye based assay relative to control; assay type: functional
PC-3 [3] = experiment: Antiproliferative activity against human PC-3 cells assessed as reduction in cell number at IC50 measured after 72 hrs by trypan blue dye based assay relative to control; assay type: functional; parameters: scale not given: the % may be the effect or the level left
PC-3 [4] = experiment: Cytotoxicity against human PC-3 cells assessed as cell growth inhibition measured after 72 hrs by MTT assay; assay type: functional, cell-based; settings: PC-3, 72 h
[5] = molecular target: T1, 5-hydroxytryptamine receptor 1A (Rattus norvegicus) (UniProt P19327); experiment: Agonist activity at Sprague-Dawley rat hippocampal membrane 5-HT1A receptor assessed as stimulation of [35S]GTPgammaS binding by measuring maximal efficacy measured after 90 mins by scintillation counter analysis relative to control; assay type: functional, cell membranes; settings: Hippocampus, filed as agonist
T1 sequence (whole entry): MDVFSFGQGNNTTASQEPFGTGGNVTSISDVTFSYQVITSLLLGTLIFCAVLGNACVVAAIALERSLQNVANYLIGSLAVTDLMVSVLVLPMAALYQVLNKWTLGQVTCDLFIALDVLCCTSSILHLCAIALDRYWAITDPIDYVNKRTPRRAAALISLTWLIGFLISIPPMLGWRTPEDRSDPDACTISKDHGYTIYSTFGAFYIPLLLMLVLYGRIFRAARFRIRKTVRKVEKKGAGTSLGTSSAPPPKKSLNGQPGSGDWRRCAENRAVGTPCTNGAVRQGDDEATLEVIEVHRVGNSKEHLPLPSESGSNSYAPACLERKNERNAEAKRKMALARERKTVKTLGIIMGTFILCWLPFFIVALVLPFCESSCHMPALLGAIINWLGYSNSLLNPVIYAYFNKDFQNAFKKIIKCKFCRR

HMEC-1 = experiment: Induction of apoptosis in human HMEC-1 cells assessed as necrotic cells at IC50 incubated for 72 hrs by Annexin V-FITC/PI staining based flow cytometric analysis (reference value: 2.4 %); assay type: functional
SW480 [6] = experiment: Induction of apoptosis in human SW480 cells assessed as necrotic cells at IC50 incubated for 72 hrs by Annexin V-FITC/PI staining based flow cytometric analysis (reference value: 0.1 %); assay type: functional
[7] = molecular target: 5-hydroxytryptamine receptor 2A (Rattus norvegicus, UniProt P14842); experiment: Displacement of [3H]ketanserin from Sprague-Dawley rat 5-HT2A receptor assessed as inhibition constant measured after 60 mins by competitive binding assay
Chain of 5-hydroxytryptamine receptor 2A (P14842 whole entry): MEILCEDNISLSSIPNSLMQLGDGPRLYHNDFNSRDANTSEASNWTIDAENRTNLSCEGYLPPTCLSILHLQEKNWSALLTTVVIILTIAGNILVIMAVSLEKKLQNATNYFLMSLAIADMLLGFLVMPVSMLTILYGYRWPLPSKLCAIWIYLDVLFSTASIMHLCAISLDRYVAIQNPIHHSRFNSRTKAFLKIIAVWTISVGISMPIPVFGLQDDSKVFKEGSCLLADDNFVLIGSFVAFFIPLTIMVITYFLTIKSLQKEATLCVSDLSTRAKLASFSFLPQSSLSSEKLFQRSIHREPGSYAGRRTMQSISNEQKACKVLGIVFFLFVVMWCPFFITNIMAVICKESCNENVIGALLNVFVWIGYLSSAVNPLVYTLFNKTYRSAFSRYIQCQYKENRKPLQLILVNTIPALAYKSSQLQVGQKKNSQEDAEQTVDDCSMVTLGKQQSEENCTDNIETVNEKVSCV

SW480 [8] = experiment: Induction of apoptosis in human SW480 cells assessed as early apoptotic cells at IC50 incubated for 72 hrs by Annexin V-FITC/PI staining based flow cytometric analysis (reference value: […]); assay type: functional
SW480 [9] = experiment: Induction of apoptosis in human SW480 cells assessed as late apoptotic cells at IC50 incubated for 72 hrs by Annexin V-FITC/PI staining based flow cytometric analysis (reference value: 0.8 %); assay type: functional
K562 [10] = experiment: Induction of apoptosis in human K562 cells assessed as necrotic cells at IC50 incubated for 72 hrs by Annexin V-FITC/PI staining based flow cytometric analysis (reference value: 7.1 %); assay type: functional
HaCaT = experiment: Induction of apoptosis in human HaCaT cells at IC50 incubated for 72 hrs by Annexin V-FITC/PI staining based flow cytometric analysis; assay type: functional, cell-based
SW480 [11] = experiment: Antiproliferative activity against human SW480 cells assessed as reduction in cell number at IC50 measured after 72 hrs by trypan blue dye based assay relative to control; assay type: functional; parameters: scale not given: the % may be the effect or the level left
PC-3 [12] = experiment: Antiproliferative activity against human PC-3 cells assessed as reduction in cell viability at IC50 measured after 72 hrs by trypan blue dye based assay relative to control; assay type: functional
PC-3 [13] = experiment: Induction of apoptosis in human PC-3 cells assessed as increase in caspase-3/7 activity at IC50 incubated for 24 hrs by Glo assay relative to control; assay type: functional
PC-3 [14] = experiment: Induction of apoptosis in human PC-3 cells assessed as late apoptotic cells at IC50 incubated for 72 hrs by Annexin V-FITC/PI staining based flow cytometric analysis (reference value: 1.7 %); assay type: functional
SW480 [15] = experiment: Antiproliferative activity against human SW480 cells assessed as reduction in cell viability at IC50 measured after 72 hrs by trypan blue dye based assay relative to control; assay type: functional
HCT-116 [16] = experiment: Induction of apoptosis in human HCT-116 cells assessed as increase in caspase-3/7 activity at IC50 incubated for 24 hrs by Glo assay; assay type: functional, cell-based
[17] = Selectivity index, ratio of IC50 for cytotoxicity against human HMEC-1 cells to IC50 for cytotoxicity against human HCT-116 cells; assay type: toxicity, cell-based; settings: HMEC-1 cells and HCT-116 cells, read-out: Ratio IC50
PC-3 [18] = experiment: Induction of apoptosis in human PC-3 cells assessed as necrotic cells at IC50 incubated for 72 hrs by Annexin V-FITC/PI staining based flow cytometric analysis (reference value: 3.6 %); assay type: functional
PC-3 [19] = experiment: Induction of apoptosis in human PC-3 cells assessed as early apoptotic cells at IC50 incubated for 72 hrs by Annexin V-FITC/PI staining based flow cytometric analysis (reference value: 0.3 %); assay type: functional
PC-3 [20] = experiment: Induction of apoptosis in human PC-3 cells assessed as viable cells at IC50 incubated for 72 hrs by Annexin V-FITC/PI staining based flow cytometric analysis (reference value: 94.4 %); assay type: functional
K562 [21] = experiment: Induction of apoptosis in human K562 cells assessed as early apoptotic cells at IC50 incubated for 72 hrs by Annexin V-FITC/PI staining based flow cytometric analysis (reference value: 1.3 %); assay type: functional
HCT-116 [22] = experiment: Antiproliferative activity against human HCT-116 cells assessed as decrease in IL-6 level at IC50 measured after 72 hrs by ELISA assay relative to control; assay type: functional; parameters: scale not given: the % may be the effect or the level left
HCT-116 [23] = experiment: Induction of apoptosis in human HCT-116 cells assessed as increase in caspase-3/7 activity at IC50 incubated for 24 hrs by Glo assay relative to control; assay type: functional
SW-620 [24] = experiment: Antiproliferative activity against human SW620 cells assessed as decrease in IL-6 level at IC50 measured after 72 hrs by ELISA assay relative to control; assay type: functional; parameters: scale not given: the % may be the effect or the level left
SW-620 [25] = experiment: Antiproliferative activity against human SW620 cells assessed as reduction in cell number at IC50 measured after 72 hrs by trypan blue dye based assay relative to control; assay type: functional; parameters: scale not given: the % may be the effect or the level left
SW-620 [26] = experiment: Induction of apoptosis in human SW620 cells assessed as early apoptotic cells at IC50 incubated for 72 hrs by Annexin V-FITC/PI staining based flow cytometric analysis (reference value: 5.2 %); assay type: functional
SW-620 [27] = experiment: Induction of apoptosis in human SW620 cells assessed as viable cells at IC50 incubated for 72 hrs by Annexin V-FITC/PI staining based flow cytometric analysis (reference value: 92.9 %); assay type: functional
SW-620 [28] = experiment: Antiproliferative activity against human SW620 cells assessed as reduction in cell viability at IC50 measured after 72 hrs by trypan blue dye based assay relative to control; assay type: functional

Row | Compound | Activity (Rattus norvegicus) | Emax [5] | Ki [7] | Activity (SW480 [1]) | Activity (K562 [2]) | Activity (PC-3 [3]) | IC50 (PC-3 [4]) | Activity (HMEC-1) | Activity (SW480 [6]) | Activity (SW480 [8]) | Activity (SW480 [9]) | Activity (K562 [10]) | Activity (HaCaT) | Activity (SW480 [11]) | Activity (PC-3 [12]) | Activity (SW480 [15]) | selectivity ratio [17] | Activity (K562 [21]) | Activity (HCT-116 [22]) | Activity (HCT-116 [23]) | also measured
1 | CC12C(=O)C(C)(C(c3ccccc3)=C1c1ccccc1)C1C(=O)N(CCCCN3CCN(c4cccc(Cl)c4)CC3)C(=O)C12 (stereo not drawn) | inactive | 162% | 25.3 µM | 81.9% | 30% | 29% | 8.61 µM | 2% | 0.1% | 16.8% | 1.2% | 9.9% | inactive | 39% | 26% | 21% | 3.54 | 5.2% |  |  | Activity (PC-3 [13]): 70%; Activity (PC-3 [14]): 16.2%; Activity (HCT-116 [16]): inactive; Activity (PC-3 [18]): 2.1%; Activity (PC-3 [19]): 3.3%; Activity (PC-3 [20]): 78.5%
2 | CC12C(=O)C(C)(C(c3ccccc3)=C1c1ccccc1)C1C(=O)N(CCCCN3CCN(c4ccccc4F)CC3)C(=O)C12 (stereo not drawn) | inactive | 152% | 0.3 µM | 87.8% | 30% | 27% | 9.19 µM | 5% | 0.1% | 10.8% | 1.4% | 10.6% |  | 46% | 26% | 21% | 3.95 | 5.2% | 53% | 137% | Activity (PC-3 [13]): 127%; Activity (PC-3 [14]): 16.2%; Activity (PC-3 [18]): 2.1%; Activity (PC-3 [19]): 6.3%; Activity (PC-3 [20]): 75.6%
3 | COc1ccccc1N1CCN(CCCCN2C(=O)C3C(C2=O)C2(C)C(=O)C3(C)C(c3ccccc3)=C2c2ccccc2)CC1 (stereo not drawn) | inactive | 122% | 0.2 µM | 87.1% | 44% |  | 14.6 µM | 1.7% | 0.1% | 11.1% | 1.7% | 20.4% | inactive | 40% |  | 22% | 3.4 | 5.9% | 53% | 53% | Activity (SW-620 [24]): 31%; Activity (SW-620 [25]): 27%; Activity (SW-620 [26]): 7.6%; Activity (SW-620 [27]): 89.2%; Activity (SW-620 [28]): 27%
4 | CC12C(=O)C(C)(C(c3ccccc3)=C1c1ccccc1)C1C(=O)N(CCCCN3CCN(c4ccccc4Cl)CC3)C(=O)C12 (stereo not drawn) | inactive | 145% | 0.1 µM | 89% | 30% | 43% | 7.85 µM | 5.1% | 0.1% | 10% | 1% | 8.4% | inactive | 38% | 26% | 21% | 5.77 | 5.2% | 53% | 137% | Activity (SW-620 [24]): 24%; Activity (SW-620 [25]): 27%; Activity (SW-620 [26]): 6.1%; Activity (SW-620 [27]): 89.9%; Activity (SW-620 [28]): 23%; Activity (PC-3 [13]): 216%; Activity (PC-3 [14]): 32.6%; Activity (PC-3 [18]): 3.1%; Activity (PC-3 [19]): 4.2%; Activity (PC-3 [20]): 60.1%

More lines, main results first:

Row | Activity (Rattus norvegicus) | Emax [5] | Ki [7] | Compound | Activity (SW480 [1]) | Activity (K562 [2]) | Activity (PC-3 [3]) | IC50 (PC-3 [4]) | Activity (HMEC-1) | Activity (SW480 [6]) | Activity (SW480 [8]) | Activity (SW480 [9]) | Activity (K562 [10]) | Activity (HaCaT) | Activity (SW480 [11]) | Activity (PC-3 [12]) | Activity (SW480 [15]) | selectivity ratio [17] | Activity (K562 [21]) | Activity (HCT-116 [22]) | Activity (HCT-116 [23]) | also measured
5 | inactive | 168% | 4.7 µM | CC12C(=O)C(C)(C(c3ccccc3)=C1c1ccccc1)C1C(=O)N(CCCCN3CCN(c4ccccn4)CC3)C(=O)C12 (stereo not drawn) |  | 37% |  | 21.2 µM | 1.6% |  |  |  | 13.7% | inactive |  |  |  | 4.37 | 6.3% |  |  | Activity (HCT-116 [16]): inactive
6 | inactive | 134% |  | CC12C(=O)C(C)(C(c3ccccc3)=C1c1ccccc1)C1C(=O)N(CCCCN3CCN(c4ncccn4)CC3)C(=O)C12 (stereo not drawn) |  | 28% |  | 20.4 µM | 1.3% |  |  |  | 7% | inactive |  |  |  | 6.6 | 4% | 53% | 137% | 
